Assay results taken from patent US20190201409A1, “COMBINATION THERAPY” (MEI Pharma, Inc., priority 2016, published 2019).

Experiments:
Assay type in all cases: cell-based
DOHH-2 cells = test: ATPLite growth inhibition assay, single agent and combination (Loewe synergy); conditions: single agent
Procedure: (§1) The activity of compound I was examined in combination with PCI-32765 (ibrutinib), ABT-199 (venetoclax) and EPZ-6438 (Tazemetostat) across a panel of 8 DLBCL cell lines indicated below (7 GCB subtype cell lines and 1 ABC subtype cell line).
(§2) The effect of test compounds and combinations on growth inhibition as a measure of cell viability was determined in an ATPLite assay. The endpoint readout of the assay was based upon quantitation of ATP as an indicator of viable cells.
(§3) Cells were thawed from a liquid nitrogen preserved state. Once cells were expanded and divided at their expected doubling times, screening begins. Cells were seeded in growth media in black 384-well tissue culture treated plates at 500 cells per well (except where noted in Analyzer). Cells were equilibrated in assay plates via centrifugation and placed in incubators attached to the Dosing Modules at 37° C. for 24 hours before treatment. […] These Tzero (T0) plates were read using ultra-sensitive luminescence on Envision Plate Readers. Treated assay plates were incubated with compound for 72 hours. All data points were collected via automated processes; quality controlled; and analyzed using Horizon Discovery proprietary software. Assay plates were accepted if they pass the following quality control standards: relative luciferase values were consistent throughout the entire experiment, Z-factor scores were greater than 0.6, untreated/vehicle controls behaved consistently on the plate.
(§4) Growth Inhibition (GI) was used as a measure of cell viability. The cell viability of vehicle was measured at the time of dosing (T0) and after seventy two hours (T72). A GI reading of 0% represented no growth inhibition—cells treated with compound and T72 or T120 vehicle signals were matched. A GI 100% represented complete growth inhibition—cells treated by compound and To vehicle signals were matched. […] A GI 200% represents complete death of all cells in the culture well. Compounds reaching an activity plateau of GI 200% were considered cytotoxic. GI was calculated by applying the following test and equation: […]
(§5) where T is the signal measure for a test article, V is the vehicle-treated control measure, and V0 is the vehicle control measure at time zero. This formula is derived from the Growth Inhibition calculation used in the National Cancer Institute's[sic] NCl[sic]−60 high throughput screen.
(§6) Loewe Additivity model was used for measuring the effects of drug combinations. The Loewe additivity model is dose-based and applies only to the activity levels achieved by the single agents. Loewe Volume was used to assess the overall magnitude of the combination interaction in excess of the Loewe additivity model. Loewe Volume is particularly useful when distinguishing synergistic increases in a phenotypic activity (positive Loewe Volume) versus synergistic antagonisms (negative Loewe Volume). When antagonisms are observed, the Loewe Volume should be assessed to examine if there is any correlation between antagonism and a particular drug target-activity or cellular genotype. This model defines additivity as a non-synergistic combination interaction where the combination dose matrix surface should be indistinguishable from either drug crossed with itself. The calculation for additivity is:
(§7) To measure combination effects in excess of Loewe additivity, a scalar measure to characterize the strength of synergistic interaction was devised and termed the Synergy Score. The Synergy Score was calculated as:
(§8) Synergy Score=log fX log fYΣ max(0,Idata)(Idata−ILoewe)
(§9) The fractional inhibition for each component agent and combination point in the matrix was calculated relative to the median of all vehicle-treated control wells. The Synergy Score equation integrates the experimentally-observed activity volume at each point in the matrix in excess of a model surface numerically derived from the activity of the component agents using the Loewe model for additivity. […]

NU-DHL-1 cells = test: as above; conditions: single agent
Procedure: as §1, §2, §3, §4, §5, §6, §7, §8, §9

OCI-Ly19 cells = test: as above; conditions: single agent
Procedure: as §1, §2, §3, §4, §5, §6, §7, §8, §9

OCI-Ly3 cells = test: as above; conditions: single agent
Procedure: as §1, §2, §3, §4, §5, §6, §7, §8, §9

Pfeiffer cells = test: as above; conditions: single agent
Procedure: as §1, §2, §3, §4, §5, §6, §7, §8, §9

SU-DHL-10 cells = test: as above; conditions: single agent; printed SU-DIAL-10
Procedure: as §1, §2, §3, §4, §5, §6, §7, §8, §9

[1] = test system: panel of 8 DLBCL cell lines; test: ATPLite growth inhibition assay across the cell line panel; conditions: single agent, FIG. 9
Procedure: as §1, §2
Cells were thawed from a liquid nitrogen preserved state. Once cells were expanded and divided at their expected doubling times, screening begins. Cells were seeded in growth media in black 384-well tissue culture treated plates at 500 cells per well (except where noted in Analyzer). […] These Tzero (T0) plates were read using ultra-sensitive luminescence on Envision Plate Readers. […] All data points were collected via automated processes; quality controlled; and analyzed using Horizon Discovery proprietary software. […]
Growth Inhibition (GI) was used as a measure of cell viability. The cell viability of vehicle was measured at the time of dosing (T0) and after seventy two hours (T72). A GI reading of 0% represented no growth inhibition—cells treated with compound and T72 or T120 vehicle signals were matched. […] GI was calculated by applying the following test and equation: […]

## CN1CCC(c2ccccc2CC(C)(C)Nc2nc(N3CCOCC3)nc(-n3c(C(F)F)nc4ccccc43)n2)CC1 [Compound I, 4-(2-(difluoromethyl)-1H-benzo[d]imidazol-1-yl)-N-(2-methyl-1-(2-(1-methylpiperidin-4-yl)phenyl)propan-2-yl)-6-morpholino-1,3,5-triazin-2-amine]
DOHH-2 cells
  kind of growth inhibition effect (FIG. 10): cytotoxic effects
NU-DHL-1 cells
  kind of growth inhibition effect (FIG. 10): sub-cytostatic effects
OCI-Ly19 cells
  kind of growth inhibition effect (FIG. 10): cytotoxic effects
OCI-Ly3 cells
  kind of growth inhibition effect (FIG. 10): cytotoxic effects
Pfeiffer cells
  kind of growth inhibition effect (FIG. 10): sub-cytostatic effects
SU-DHL-10 cells
  kind of growth inhibition effect (FIG. 10): sub-cytostatic effects
[1]; all cell lines
  growth inhibition levels: > 50%
[1]; median across cell line panel
  GI50: 1.73 µM
